Results as given in PMC5362750, “Discovery of Potent, Selective, and Orally Bioavailable Small-Molecule Modulators of the Mediator Complex-Associated Kinases CDK8 and CDK19” (Journal of Medicinal Chemistry, 2016).

Experiments:
IKKBETA = target: T1, IKKBETA (Homo sapiens, UniProt O14920); experiment: Kinase panel (Millipore); assay type: biochemical; conditions: 1 µM, ATP at Km
T1 construct: purchased Millipore (KinaseProfiler) kinase panel

BMX = target: T2, BMX (Homo sapiens, UniProt P51813); experiment: Kinase panel (Millipore); assay type: biochemical; conditions: 1 µM, ATP at Km
T2 construct: purchased Millipore (KinaseProfiler) kinase panel

PTK5 = target: T3, PTK5 (Homo sapiens, UniProt P42685); experiment: Kinase panel (Millipore); assay type: biochemical; conditions: 1 µM, ATP at Km
T3 construct: purchased Millipore (KinaseProfiler) kinase panel

CK2 = CK2 (Homo sapiens, UniProt P68400); conditions: 1 µM, ATP at Km
IRAK1 = IRAK1 (Homo sapiens, UniProt P51617); experiment: Kinase panel (Millipore); assay type: biochemical; conditions: 1 µM, ATP at Km
DAPK2 = DAPK2 (Homo sapiens, UniProt Q9UIK4); experiment: Kinase panel (Millipore); assay type: biochemical; conditions: 1 µM, ATP at Km
MST2 = target: T4, MST2 (Homo sapiens, UniProt Q13188); experiment: Kinase panel (Millipore); assay type: biochemical; conditions: 1 µM, ATP at Km
T4 construct: purchased Millipore (KinaseProfiler) kinase panel

PDGFRALPHA = target: T5, PDGFRALPHA (Homo sapiens, UniProt P16234); experiment: Kinase panel (Millipore); assay type: biochemical; conditions: 1 µM, ATP at Km
T5 construct: purchased Millipore (KinaseProfiler) kinase panel

CAMKIIDELTA = CAMKIIDELTA (Homo sapiens, UniProt Q13557); experiment: Kinase panel (Millipore); assay type: biochemical; conditions: 1 µM, ATP at Km
[1] = target: N neuronal alpha 4beta 2 (h) (Homo sapiens, UniProt P17787+P43681); experiment: biochemical; conditions: read-out: % Inhibition of Control Specific Binding
[2] = target: GABAA1 (h) (alpha 1,beta 2,gamma 2) (Homo sapiens, UniProt P14867+P47870); experiment: biochemical; conditions: read-out: % Inhibition of Control Specific Binding
PKG1ALPHA = PKG1ALPHA (Homo sapiens, UniProt Q13976); experiment: Kinase panel (Millipore); assay type: biochemical; conditions: 1 µM, ATP at Km
in vivo = conditions: NCr athymic, mouse, po, 30 mg/kg
FGFR2(N549H) = FGFR2(N549H) (Homo sapiens, UniProt P21802, N549H); conditions: 1 µM, ATP at Km
CAMKIDELTA = CAMKIDELTA (Homo sapiens, UniProt Q8IU85); experiment: Kinase panel (Millipore); assay type: biochemical; conditions: 1 µM, ATP at Km
PRKCQ = target: T6, PRKCQ (Homo sapiens, UniProt Q04759); experiment: Kinase panel (Millipore); assay type: biochemical; conditions: 1 µM, ATP at Km
T6 construct: purchased Millipore (KinaseProfiler) kinase panel

TSSK2 = target: T7, TSSK2 (Homo sapiens, UniProt Q96PF2); experiment: Kinase panel (Millipore); assay type: biochemical; conditions: 1 µM, ATP at Km
T7 construct: purchased Millipore (KinaseProfiler) kinase panel

RIPK2 = RIPK2 (Homo sapiens, UniProt O43353); experiment: Kinase panel (Millipore); assay type: biochemical; conditions: 1 µM, ATP at Km
IR = target: T8, IR (Homo sapiens, UniProt P06213); experiment: Kinase panel (Millipore); assay type: biochemical; conditions: 1 µM, ATP at Km
T8 construct: purchased Millipore (KinaseProfiler) kinase panel

P70S6K = target: T9, P70S6K (Homo sapiens, UniProt P23443); experiment: Kinase panel (Millipore); assay type: biochemical; conditions: 1 µM, ATP at Km
T9 construct: purchased Millipore (KinaseProfiler) kinase panel

alpha 2B (h) = alpha 2B (h) (Homo sapiens, UniProt P18089); experiment: biochemical; conditions: read-out: % Inhibition of Control Specific Binding
TBK1 = target: T10, TBK1 (Homo sapiens, UniProt Q9UHD2); experiment: Kinase panel (Millipore); assay type: biochemical; conditions: 1 µM, ATP at Km
T10 construct: purchased Millipore (KinaseProfiler) kinase panel

HASPIN = target: T11, HASPIN (Homo sapiens, UniProt Q8TF76); experiment: Kinase panel (Millipore); assay type: biochemical; conditions: 1 µM, ATP at Km
T11 construct: purchased Millipore (KinaseProfiler) kinase panel

ZAP-70 = target: T12, ZAP-70 (Homo sapiens, UniProt P43403); experiment: Kinase panel (Millipore); assay type: biochemical; conditions: 1 µM, ATP at Km
T12 construct: purchased Millipore (KinaseProfiler) kinase panel

V2 (h) = target: T13, V2 (h) (Homo sapiens, UniProt P30518); experiment: CEREP binding assay; conditions: agonist radioligand, read-out: % Inhibition of Control Specific Binding
T13 construct: CEREP

GABA transporter = conditions: 10 µM, antagonist radioligand
LKB1 = target: T14, LKB1 (Homo sapiens, UniProt Q15831); experiment: Kinase panel (Millipore); assay type: biochemical; conditions: 1 µM, ATP at Km
T14 construct: purchased Millipore (KinaseProfiler) kinase panel

EPHA1 = target: T15, EPHA1 (Homo sapiens, UniProt P21709); experiment: Kinase panel (Millipore); assay type: biochemical; conditions: 1 µM, ATP at Km
T15 construct: purchased Millipore (KinaseProfiler) kinase panel

CDK5/P35 = CDK5/P35 (Homo sapiens, UniProt Q00535); conditions: 1 µM, ATP at Km
WNK3 = target: T16, WNK3 (Homo sapiens, UniProt Q9BYP7); experiment: Kinase panel (Millipore); assay type: biochemical; conditions: 1 µM, ATP at Km
T16 construct: purchased Millipore (KinaseProfiler) kinase panel

PKCALPHA = PKCALPHA (Homo sapiens, UniProt P17252); experiment: Kinase panel (Millipore); assay type: biochemical; conditions: 1 µM, ATP at Km
[3] = male, Wistar, rat, in vivo
PRKX = target: T17, PRKX (Homo sapiens, UniProt P51817); experiment: Kinase panel (Millipore); assay type: biochemical; conditions: 1 µM, ATP at Km
T17 construct: purchased Millipore (KinaseProfiler) kinase panel

CB2 (h) = CB2 (h) (Homo sapiens, UniProt P34972); experiment: biochemical; conditions: read-out: % Inhibition of Control Specific Binding
ROCK-II = ROCK-II (Homo sapiens, UniProt O75116); experiment: Kinase panel (Millipore); assay type: biochemical; conditions: 1 µM, ATP at Km
RSK3 = RSK3 (Homo sapiens, UniProt Q15349); experiment: Kinase panel (Millipore); assay type: biochemical; conditions: 1 µM, ATP at Km
MTOR = MTOR (Homo sapiens, UniProt P42345); experiment: Kinase panel (Millipore); assay type: biochemical; conditions: 1 µM, ATP at Km
DDR2 = DDR2 (Homo sapiens, UniProt Q16832); experiment: Kinase panel (Millipore); assay type: biochemical; conditions: 1 µM, ATP at Km
HIPK3 = target: T18, HIPK3 (Homo sapiens, UniProt Q9H422); experiment: Kinase panel (Millipore); assay type: biochemical; conditions: 1 µM, ATP at Km
T18 construct: purchased Millipore (KinaseProfiler) kinase panel

CHK2 = target: T19, CHK2 (Homo sapiens, UniProt O96017); experiment: Kinase panel (Millipore); assay type: biochemical; conditions: 1 µM, ATP at Km
T19 construct: purchased Millipore (KinaseProfiler) kinase panel

T2 sequence (P51813 whole entry): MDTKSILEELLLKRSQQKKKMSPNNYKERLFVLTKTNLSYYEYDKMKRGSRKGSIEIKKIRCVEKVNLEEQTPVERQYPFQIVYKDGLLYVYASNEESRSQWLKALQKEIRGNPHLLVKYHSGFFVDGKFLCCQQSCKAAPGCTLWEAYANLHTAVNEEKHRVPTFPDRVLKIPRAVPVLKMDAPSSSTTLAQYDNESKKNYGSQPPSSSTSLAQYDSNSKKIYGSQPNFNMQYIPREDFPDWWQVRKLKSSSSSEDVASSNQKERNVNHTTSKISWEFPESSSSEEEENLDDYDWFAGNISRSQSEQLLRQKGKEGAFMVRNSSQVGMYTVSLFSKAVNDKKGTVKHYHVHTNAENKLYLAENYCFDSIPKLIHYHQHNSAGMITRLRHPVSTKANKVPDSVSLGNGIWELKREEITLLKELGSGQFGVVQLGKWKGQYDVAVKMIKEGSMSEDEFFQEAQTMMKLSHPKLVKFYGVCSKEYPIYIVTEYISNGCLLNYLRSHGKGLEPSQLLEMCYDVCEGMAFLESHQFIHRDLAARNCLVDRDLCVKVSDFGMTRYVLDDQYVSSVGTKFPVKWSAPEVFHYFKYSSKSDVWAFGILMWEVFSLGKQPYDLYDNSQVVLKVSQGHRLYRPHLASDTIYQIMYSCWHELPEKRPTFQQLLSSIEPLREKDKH
T4 sequence (Q13188 whole entry): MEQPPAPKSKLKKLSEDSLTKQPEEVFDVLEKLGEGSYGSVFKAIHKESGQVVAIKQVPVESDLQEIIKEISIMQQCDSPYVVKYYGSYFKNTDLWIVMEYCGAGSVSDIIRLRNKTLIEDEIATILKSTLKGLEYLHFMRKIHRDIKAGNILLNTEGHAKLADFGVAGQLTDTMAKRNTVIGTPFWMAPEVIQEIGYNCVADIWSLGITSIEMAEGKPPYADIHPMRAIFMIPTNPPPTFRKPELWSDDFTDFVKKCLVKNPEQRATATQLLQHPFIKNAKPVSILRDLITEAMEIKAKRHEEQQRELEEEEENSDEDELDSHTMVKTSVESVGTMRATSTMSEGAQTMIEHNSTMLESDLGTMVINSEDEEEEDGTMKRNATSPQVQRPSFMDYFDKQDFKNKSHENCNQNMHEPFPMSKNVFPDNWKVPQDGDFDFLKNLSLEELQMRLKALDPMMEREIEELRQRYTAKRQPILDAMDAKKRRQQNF
Sequence of RIPK2 (O43353 whole entry): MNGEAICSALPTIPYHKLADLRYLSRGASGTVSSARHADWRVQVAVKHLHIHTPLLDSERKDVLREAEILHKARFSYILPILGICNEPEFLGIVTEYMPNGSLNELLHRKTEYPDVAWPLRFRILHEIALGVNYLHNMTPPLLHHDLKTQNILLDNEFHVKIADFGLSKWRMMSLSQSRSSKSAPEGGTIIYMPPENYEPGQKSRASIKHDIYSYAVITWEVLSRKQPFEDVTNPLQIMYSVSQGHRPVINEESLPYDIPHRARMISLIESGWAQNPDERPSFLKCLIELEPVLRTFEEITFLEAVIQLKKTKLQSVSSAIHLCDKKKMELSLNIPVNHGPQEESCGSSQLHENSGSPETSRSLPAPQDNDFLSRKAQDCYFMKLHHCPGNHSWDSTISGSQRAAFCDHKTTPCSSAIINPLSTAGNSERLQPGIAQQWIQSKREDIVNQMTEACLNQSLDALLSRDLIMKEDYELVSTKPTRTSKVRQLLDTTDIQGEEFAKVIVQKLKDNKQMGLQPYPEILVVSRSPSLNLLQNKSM
Sequence of DDR2 (Q16832 22-855): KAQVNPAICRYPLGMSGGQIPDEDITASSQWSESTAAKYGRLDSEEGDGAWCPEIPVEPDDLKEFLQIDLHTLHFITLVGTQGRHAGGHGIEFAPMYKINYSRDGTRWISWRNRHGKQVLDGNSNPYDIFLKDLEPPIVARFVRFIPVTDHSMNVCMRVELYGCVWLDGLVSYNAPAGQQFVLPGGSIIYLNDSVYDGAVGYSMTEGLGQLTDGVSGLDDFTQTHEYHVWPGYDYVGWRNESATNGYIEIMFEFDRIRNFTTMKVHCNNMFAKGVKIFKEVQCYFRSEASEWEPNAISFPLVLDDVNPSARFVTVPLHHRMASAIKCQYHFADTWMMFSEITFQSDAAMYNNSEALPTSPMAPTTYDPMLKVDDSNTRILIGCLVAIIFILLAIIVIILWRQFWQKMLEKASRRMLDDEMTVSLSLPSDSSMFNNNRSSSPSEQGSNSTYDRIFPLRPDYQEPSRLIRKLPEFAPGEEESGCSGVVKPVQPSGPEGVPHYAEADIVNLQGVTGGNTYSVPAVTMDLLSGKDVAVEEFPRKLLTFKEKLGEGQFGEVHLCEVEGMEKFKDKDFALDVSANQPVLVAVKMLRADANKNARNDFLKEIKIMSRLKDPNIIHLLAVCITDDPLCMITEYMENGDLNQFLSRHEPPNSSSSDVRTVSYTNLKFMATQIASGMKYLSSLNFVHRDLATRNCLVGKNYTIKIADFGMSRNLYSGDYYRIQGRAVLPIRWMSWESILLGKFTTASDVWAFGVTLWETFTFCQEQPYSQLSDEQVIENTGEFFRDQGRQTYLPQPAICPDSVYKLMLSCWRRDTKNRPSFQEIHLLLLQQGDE
Sequence of IRAK1 (P51617 whole entry): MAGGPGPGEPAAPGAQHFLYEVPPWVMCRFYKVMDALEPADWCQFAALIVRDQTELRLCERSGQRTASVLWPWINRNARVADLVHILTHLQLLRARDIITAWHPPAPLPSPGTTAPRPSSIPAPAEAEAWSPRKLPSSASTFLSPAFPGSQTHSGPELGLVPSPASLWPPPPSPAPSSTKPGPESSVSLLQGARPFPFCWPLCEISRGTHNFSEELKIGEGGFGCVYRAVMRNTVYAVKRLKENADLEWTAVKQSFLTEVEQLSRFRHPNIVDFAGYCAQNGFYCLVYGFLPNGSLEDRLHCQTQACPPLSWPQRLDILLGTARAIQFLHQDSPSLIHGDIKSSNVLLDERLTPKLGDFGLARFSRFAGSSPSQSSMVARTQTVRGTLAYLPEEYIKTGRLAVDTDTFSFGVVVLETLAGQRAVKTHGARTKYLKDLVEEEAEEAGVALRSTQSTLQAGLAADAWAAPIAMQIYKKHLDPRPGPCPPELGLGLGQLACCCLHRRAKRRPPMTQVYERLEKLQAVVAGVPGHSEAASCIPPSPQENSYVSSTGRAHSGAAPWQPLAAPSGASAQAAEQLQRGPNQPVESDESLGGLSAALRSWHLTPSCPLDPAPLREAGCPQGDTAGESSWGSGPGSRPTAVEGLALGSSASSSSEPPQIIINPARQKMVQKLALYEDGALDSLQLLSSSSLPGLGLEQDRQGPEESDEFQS
Sequence of CDK5/P35 (Q00535 whole entry): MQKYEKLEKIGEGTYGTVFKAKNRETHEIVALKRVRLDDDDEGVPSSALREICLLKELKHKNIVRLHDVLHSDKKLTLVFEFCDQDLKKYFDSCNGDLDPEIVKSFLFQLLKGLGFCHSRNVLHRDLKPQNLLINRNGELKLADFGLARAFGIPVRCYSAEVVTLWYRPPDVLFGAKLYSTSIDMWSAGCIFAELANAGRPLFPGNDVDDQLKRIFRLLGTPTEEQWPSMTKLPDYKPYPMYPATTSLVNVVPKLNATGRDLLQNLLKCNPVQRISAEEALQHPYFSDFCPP
Sequence of CDK5/P35 (Q15078 whole entry partner): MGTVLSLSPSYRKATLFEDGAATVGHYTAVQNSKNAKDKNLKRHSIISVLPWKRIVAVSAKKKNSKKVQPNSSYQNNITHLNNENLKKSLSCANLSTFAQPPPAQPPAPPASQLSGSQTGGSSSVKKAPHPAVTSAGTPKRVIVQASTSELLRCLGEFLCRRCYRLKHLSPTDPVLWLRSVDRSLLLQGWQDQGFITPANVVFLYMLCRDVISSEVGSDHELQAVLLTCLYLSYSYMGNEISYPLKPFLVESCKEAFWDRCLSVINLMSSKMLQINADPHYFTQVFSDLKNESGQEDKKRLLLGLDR
Sequence of CB2 (h) (P34972 whole entry): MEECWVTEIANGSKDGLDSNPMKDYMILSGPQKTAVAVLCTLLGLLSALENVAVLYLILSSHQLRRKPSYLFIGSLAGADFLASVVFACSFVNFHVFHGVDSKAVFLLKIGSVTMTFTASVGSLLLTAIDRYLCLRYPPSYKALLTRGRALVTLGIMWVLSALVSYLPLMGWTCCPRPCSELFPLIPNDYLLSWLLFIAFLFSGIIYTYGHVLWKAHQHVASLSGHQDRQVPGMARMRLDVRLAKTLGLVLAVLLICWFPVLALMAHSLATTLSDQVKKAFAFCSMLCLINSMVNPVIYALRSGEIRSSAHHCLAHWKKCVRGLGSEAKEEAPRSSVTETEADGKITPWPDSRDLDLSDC
T3 sequence (P42685 whole entry): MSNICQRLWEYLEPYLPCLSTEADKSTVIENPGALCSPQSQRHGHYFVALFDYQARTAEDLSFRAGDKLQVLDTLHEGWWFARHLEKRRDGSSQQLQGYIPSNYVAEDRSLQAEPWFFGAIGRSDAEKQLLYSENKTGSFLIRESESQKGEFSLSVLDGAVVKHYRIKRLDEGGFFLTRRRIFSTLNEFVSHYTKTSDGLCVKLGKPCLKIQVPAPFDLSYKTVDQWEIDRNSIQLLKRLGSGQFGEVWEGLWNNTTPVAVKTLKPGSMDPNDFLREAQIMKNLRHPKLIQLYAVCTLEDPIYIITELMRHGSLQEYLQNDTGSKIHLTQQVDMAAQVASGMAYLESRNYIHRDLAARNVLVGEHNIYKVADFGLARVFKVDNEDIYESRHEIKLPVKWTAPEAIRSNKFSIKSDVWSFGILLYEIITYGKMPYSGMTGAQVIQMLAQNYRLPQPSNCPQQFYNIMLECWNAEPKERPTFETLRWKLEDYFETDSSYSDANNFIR

With Cn1ncc2cc(-c3cnc(N)c(Cl)c3N3CCC4(CCNC4=O)CC3)ccc21 [Compound 109, 8-(2-Amino-3-chloro-5-(1-methyl-1H-indazol-5-yl)pyridin-4-yl)-2,8-diazaspiro[4.5]decan-1-one] the “% effect” value (IKKBETA) was -2%, the “% effect” value (BMX) was -6% and the “% effect” value (PTK5) was -12%. The “% effect” value (CK2) was 3%, the “% effect” value (IRAK1) was 15% and the “% effect” value (DAPK2) was -7%. For the same compound, the “% effect” value (MST2) was -11%, the “% effect” value (PDGFRALPHA) was 10% and the “% effect” value (CAMKIIDELTA) was 7%. The inhibition at 10 µM [1] was -6%, the inhibition at 10 µM [2] was -12% and the “% effect” value (PKG1ALPHA) was 23%. The concentration at 1 h (in vivo; Free Plasma conc.) was 523 nM, the concentration at 2 h (in vivo; Free Plasma conc.) was 240 nM and the concentration at 6 h (in vivo; Free Plasma conc.) was 29 nM. It also gave a concentration at 24 h (in vivo; Free Plasma conc.) of 3 nM, a concentration at 1 h (in vivo; Free tumor conc.) of 171 nM and a concentration at 2 h (in vivo; Free tumor conc.) of 120 nM. The concentration at 6 h (in vivo; Free tumor conc.) was 55 nM, the concentration at 24 h (in vivo; Free tumor conc.) was 28 nM and the concentration at 1 h (in vivo; Total Plasma conc.) was 14900 nM. It also gave a concentration at 2 h (in vivo; Total Plasma conc.) of 6860 nM, a concentration at 6 h (in vivo; Total Plasma conc.) of 822 nM and a concentration at 24 h (in vivo; Total Plasma conc.) of 90 nM. For the same compound, the concentration at 1 h (in vivo; Total tumor conc.) was 4880 nM, the concentration at 2 h (in vivo; Total tumor conc.) was 3420 nM and the concentration at 6 h (in vivo; Total tumor conc.) was 1570 nM. The concentration at 24 h (in vivo; Total tumor conc.) was 796 nM, the “% effect” value (FGFR2(N549H)) was 1% and the “% effect” value (CAMKIDELTA) was 8%. The “% effect” value (PRKCQ) was -13%, the “% effect” value (TSSK2) was 9% and the “% effect” value (RIPK2) was 1%. For the same compound, the “% effect” value (IR) was -5%, the “% effect” value (P70S6K) was -1% and the inhibition at 10 µM (alpha 2B (h)) was 10%. For the same compound, the “% effect” value (TBK1) was 6%, the “% effect” value (HASPIN) was 26% and the “% effect” value (ZAP-70) was 21%. For the same compound, the inhibition at 10 µM (V2 (h)) was 2%, the “% Inhibition of Control Specific Binding” value (GABA transporter) was 3% and the “% effect” value (LKB1) was 5%. The “% effect” value (EPHA1) was 4%, the “% effect” value (CDK5/P35) was 1% and the “% effect” value (WNK3) was 6%. For the same compound, the “% effect” value (PKCALPHA) was 5%, the LBF [3] was 34% and the “% effect” value (PRKX) was -9%. The inhibition at 10 µM (CB2 (h)) was 29%, the “% effect” value (ROCK-II) was -10% and the “% effect” value (RSK3) was -15%. The “% effect” value (MTOR) was -3%, the “% effect” value (DDR2) was 19% and the “% effect” value (HIPK3) was 18%. The “% effect” value (CHK2) was -2%.
